The values that follow come from ChEMBL document CHEMBL1201862, “PubChem BioAssay data set” (2004).

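Interpolation was linear, between the two tested concentrations surrounding the appropriate level; five concentrations were tested over 48 hours in 96-well plates. Abbreviation: GI50, concentration required for 50% inhibition of growth.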 Active and inactive are the calls of the source. Cut-off read from the data, not from the text of the source: active = GI50 up to about 1.1 µM and inactive = higher.

Some test systems named below: IGROV-1; SK-MEL-28; OVCAR-8; OVCAR-5; SNB-19; A549; HT-29; UACC-257; SR; NCI-H522; HOP-62; SW-620; U-251; SK-OV-3; SF-539; SK-MEL-5; NCI/ADR-RES; MCF7; MDA-MB-231; DU-145.
Assay in all cases: growth of human tumour cells (NCI), 48 h

For `COc1cc(CC(=O)c2cc3c(cc2-c2ccccc2)OCO3)cc(OC)c1OC`, the GI50 in the test on IGROV-1 is 23.1 µM (inactive); in the test with SK-MEL-28, 58.3 µM (inactive); in the test with OVCAR-8, 58.7 µM (inactive); in the test with OVCAR-5, > 100 µM (inactive); with SNB-19 it was 72.3 µM (inactive); with A549 it was 26.1 µM (inactive). Also, the GI50 with HT-29 was > 100 µM (inactive); with UACC-257, 23.4 µM (inactive); in the test on SR it was 19.1 µM (inactive); in the test on NCI-H522, 18.7 µM (inactive); in the test with HOP-62 it was 79.6 µM (inactive); in the test with SW-620, 43.4 µM (inactive). Further, the GI50 in the test with U-251 was 71.6 µM (inactive); in the test on SK-OV-3, 49.3 µM (inactive); in the test with SF-539 it was 17.5 µM (inactive); in the test on SK-MEL-5, 6.62 µM (inactive).

For the molecule `C=CCOC(=O)CC[C@H](NC(=O)[C@@H](CCC(F)(F)F)Cc1ccc(O)cc1)C(=O)OCC=C`, the GI50 is > 100 µM (inactive) in the test with IGROV-1; 23.7 µM (inactive) with SK-MEL-28; > 100 µM (inactive) with OVCAR-8; > 100 µM (inactive) with OVCAR-5; > 100 µM (inactive) with SNB-19; > 100 µM (inactive) in the test with NCI/ADR-RES. The GI50 in the test on A549 is > 100 µM (inactive); in the test on HT-29, > 100 µM (inactive); in the test with SR it was 32.5 µM (inactive); with MCF7 it was 20.7 µM (inactive); in the test on NCI-H522, 24.3 µM (inactive); with HOP-62 it was > 100 µM (inactive). Moreover, the GI50 with SW-620 was > 100 µM (inactive); in the test with SK-OV-3, > 100 µM (inactive); in the test with SF-539, 90.2 µM (inactive); in the test on SK-MEL-5 it was 18.5 µM (inactive).

Take `CCCCCCCCCCCCCCCC(=O)OCC1OC(N2C(=O)/C(=N\NC(N)=S)c3ccc([N+](=O)[O-])cc32)C(OC(C)=O)C1OC(C)=O` (stereo not drawn): the GI50 with IGROV-1 is > 100 µM (inactive); in the test on SK-MEL-28, > 100 µM (inactive); in the test on OVCAR-8, 52.1 µM (inactive); with OVCAR-5, > 100 µM (inactive); in the test on SNB-19, > 100 µM (inactive); in the test on A549 it was 56.2 µM (inactive). The GI50 in the test with HT-29 is > 100 µM (inactive); with UACC-257, > 100 µM (inactive); in the test on SR it was > 100 µM (inactive); with NCI-H522 it was 36.6 µM (inactive); in the test with HOP-62, > 100 µM (inactive); in the test on SW-620 it was > 100 µM (inactive). For the same molecule, the GI50 with U-251 was 78 µM (inactive); in the test on SK-OV-3 it was 48.4 µM (inactive); in the test with SF-539, > 100 µM (inactive); in the test on SK-MEL-5, 97.5 µM (inactive).

For `CC(C)CC1CC2C(=O)N(c3ccccc3)C(=O)C2c2[nH]c3ccccc3c21` (stereo not drawn), the GI50 in the test on IGROV-1 is 17.7 µM (inactive); with SK-MEL-28, 27 µM (inactive); with OVCAR-8, 14.9 µM (inactive); with OVCAR-5, > 100 µM (inactive); with SNB-19, 40.9 µM (inactive); in the test on A549 it was 22.4 µM (inactive). The GI50 with HT-29 is 51.9 µM (inactive); with UACC-257, 26.5 µM (inactive); with SR, 10.4 µM (inactive); in the test with NCI-H522, 20.9 µM (inactive); in the test on HOP-62, 18.8 µM (inactive); in the test with SW-620, 23.8 µM (inactive). Also, the GI50 in the test on U-251 is 25 µM (inactive); in the test with SK-OV-3, 21.4 µM (inactive); in the test with SF-539, 23.2 µM (inactive); with SK-MEL-5 it was > 80.9 µM (inactive).

For the molecule `Cc1cc(=O)oc2c3c(ccc12)OC(c1ccc(Br)cc1)CC3=O` (stereo not drawn), the GI50 with IGROV-1 was 10.7 µM (inactive); with SK-MEL-28, 8.67 µM (inactive); in the test on OVCAR-8, 5.86 µM (inactive); in the test on OVCAR-5, 16.3 µM (inactive); in the test with SNB-19 it was 5.31 µM (inactive); in the test on NCI/ADR-RES, 12.5 µM (inactive). Besides, the GI50 in the test with A549 is 16.7 µM (inactive); with HT-29, 14.7 µM (inactive); with UACC-257 it was 13.1 µM (inactive); in the test on SR, 3.23 µM (inactive); with MCF7, 4.27 µM (inactive); in the test on NCI-H522 it was 4.42 µM (inactive). The GI50 is 7.69 µM (inactive) in the test with HOP-62; 4.2 µM (inactive) in the test with SW-620; 7.35 µM (inactive) in the test with MDA-MB-231; 5.9 µM (inactive) in the test on U-251; 8.15 µM (inactive) in the test with SK-OV-3; 9.98 µM (inactive) in the test on SF-539. Also, the GI50 with SK-MEL-5 is 11.6 µM (inactive).

Turning to `C=C(CN(CC(=C)C(=O)c1ccccc1)C(C)(C)C)C(=O)c1ccccc1`, the GI50 in the test on IGROV-1 is 20.5 µM (inactive); in the test with SK-MEL-28 it was 16.5 µM (inactive); in the test with OVCAR-8 it was 20.5 µM (inactive); in the test with OVCAR-5, 19.6 µM (inactive); in the test with SNB-19, 23.3 µM (inactive); with DU-145, 19.6 µM (inactive). Further, the GI50 in the test with A549 is 28.4 µM (inactive); with HT-29, 18.1 µM (inactive); with UACC-257, 17 µM (inactive); with SR, 2.1 µM (inactive); with NCI-H522 it was 2.86 µM (inactive); in the test with SW-620, 2.82 µM (inactive). Moreover, the GI50 is 20.5 µM (inactive) with U-251, 18.4 µM (inactive) in the test with SK-OV-3, 16.8 µM (inactive) in the test with SF-539 and 16.8 µM (inactive) with SK-MEL-5.

Turning to `COc1ccc(-c2nc3ncccn3c2-c2ccc(SC)cc2)cc1`, the GI50 is 2.04 µM (inactive) in the test on IGROV-1; 16.9 µM (inactive) with SK-MEL-28; 3.92 µM (inactive) in the test with OVCAR-8; 2.42 µM (inactive) with OVCAR-5; 1.19 µM (inactive) with SNB-19; 1.46 µM (inactive) with NCI/ADR-RES. Further, the GI50 in the test on A549 was 2.88 µM (inactive); in the test with HT-29, 3.09 µM (inactive); in the test on UACC-257, > 100 µM (inactive); in the test on SR, 0.507 µM (active); with NCI-H522 it was 0.23 µM (active); in the test with HOP-62, 5.64 µM (inactive). The GI50 in the test on SW-620 was 1.48 µM (inactive); in the test on MDA-MB-231, 4.24 µM (inactive); with U-251, 2.44 µM (inactive); with SK-OV-3 it was 0.439 µM (active); in the test on SF-539 it was 1.83 µM (inactive); in the test on SK-MEL-5, 0.953 µM (active).

For `COc1cc(/C=C2\N=C(c3ccccc3)N(c3cc4cc(Sc5ccccc5)ccc4[nH]3)C2=O)ccc1O`, the GI50 was 3.28 µM (inactive) in the test with IGROV-1; > 50 µM (inactive) in the test with SK-MEL-28; 12.3 µM (inactive) in the test on OVCAR-8; > 50 µM (inactive) in the test with OVCAR-5; > 50 µM (inactive) with SNB-19; 11.7 µM (inactive) with DU-145. For the same molecule, the GI50 with NCI/ADR-RES was 3.13 µM (inactive); in the test on A549, > 50 µM (inactive); with HT-29, 3.51 µM (inactive); with UACC-257 it was 14.8 µM (inactive); with SR, 2.12 µM (inactive); with MCF7, 0.255 µM (active). Besides, the GI50 in the test on NCI-H522 is 1.86 µM (inactive); in the test on SW-620, 3.58 µM (inactive); in the test with SF-539 it was 5.14 µM (inactive); in the test on SK-MEL-5, 2.54 µM (inactive).
